Patent US11020414B2, “Antimicrobial compositions with cysteamine” (priority 2010, dated 2021)
Converted amounts (≈) assume the structure as drawn. “And” between values parts separate entries of the source, which are not always exact repeats. Identical values can stand only once.

Experiments:
[1] = system: Pseudomonas aeruginosa Pa14; test: FIC index of combinations with conventional antibiotics, strain Pa14; type: cell-based; conditions: strain Pa14 (Col^R)
Protocol: (§1) The bacterial inoculum was established by the dilution method from actively-growing cultures in Mueller-Hinton (MH) broth, standardized with 0.5 McFarland turbidity standard as described in the CLSI method M26-A.
(§2) Both the bacterial inoculum and the antimicrobial agents, including the compounds structurally related to cysteamine, were added simultaneously to the plates. The plates were incubated at 37° C. for 24 h and the optical density was read at 625 nm on a microtitre plate reader (BioTek Powerwave XS, Winooski, USA). The MIC was obtained as the lowest concentration of antimicrobial showing total inhibition of bacterial growth.
(§3) The FIC corresponds to an interaction coefficient indicating whether the combination of antimicrobial agents is synergistic, additive, antagonist or neutral. The FIC is determined by comparing the activity of an agent in combination (MIC of agent A+agent B) with the activity of the agent alone (MIC of agent A or agent B) as follow (Singh et al., 2000): FIC=MICA[combination]/MICA[alone]+MICB[combination]/MICB[alone]
(§4) Additive combinations of two antimicrobial agents are indicated by a FIC index of 1, whereas a FIC index<1 indicates synergistic combinations. Neutral combinations would give a FIC between 1 and 4, a FIC index higher than 4 indicates antagonist effects between the two antimicrobial agents.
(§5) The FIC was also calculated to assess the interaction of two antimicrobial agents in combination against bacterial samples.

[2] = system: P. aeruginosa PAO1 biofilms; test: Post-antimicrobial effect and metabolic activity of biofilms after treatment (FIG. 9, 10); type: cell-based, Pseudomonas aeruginosa; conditions: 24 h following treatment of the biofilms
Protocol: FIG. 9: is a graph showing the post-antimicrobial effect of cysteamine (NM001) in combination with Tobramycin versus P. aeruginosa PAO1 biofilms. […] The PAE was determined by transfer of 10 μl biofilm cultures into 90 μl sterile MH broth in triplicate in microtitre plates following treatment. Bacterial growth was followed on a BioTek plate reader for 24 h at 37° C. Microbial metabolic activity following treatment of the biofilms was determined using the same method as for PAE determination and adding 10% (v/v) of a fluorescent cell viability indicator, resazurin (Alamar Blue, Serotec), which detected microbial metabolic activity growth by increase in fluorescence. Fluorescence was measured over 24 h at 37° C. using a BioTek Synergy HT microplate reader (BioTek, Winooski, USA) at 530/590 nm.

[3] = system: P. aeruginosa PAO1 planktonic cells; test: MIC in physiologically-relevant ionic concentrations (FIG. 7); type: cell-based, Pseudomonas aeruginosa
Protocol: Bacterial growth was followed over a 24 h period and absorbance read using a BioTek microtitre plate reader at 625 nm. Total bacterial growth inhibition was retained in the presence of NaCl, CaCl2 or DNA and at two-fold the normal MIC100 in the presence of mucin. Tobramycin activity was inhibited in the presence of the divalent cation ca^2+ and in the presence of the anionic polymer DNA. […] A similar method as described above (1.4) was used for the determination of the antimicrobial activity of cysteamine (Lynovex®) in the presence of high ionic concentrations. […] Bacterial growth was followed over a 24 h period and absorbance read using a BioTek microtitre plate reader at 625 nm.

[4] = system: Pseudomonas aeruginosa Pa57388A; test: FIC index of combinations with conventional antibiotics, strain Pa57388A; type: cell-based; conditions: strain Pa57388A (Col^R), listed as Cysteamine (NM001)
Protocol: as §1, §2, §3, §4, §5

[5] = system: Pseudomonas planktonic cells; test: Antibacterial activity of Tobramycin and cysteamine, separately and combined (FIG. 1); type: cell-based; conditions: FIG. 1b
Protocol: FIG. 1A and FIG. 1B: provide a comparison of the antibacterial activity of Tobramycin and cysteamine (NM001) against Pseudomonas planktonic cells when administered separately, and in combined form. NM001 reduces the MIC of Tobramycin against planktonic cells by at least 4-fold (FIG. 1b)
as §2

[6] = system: 4 P. aeruginosa (PAO1, ATCC27853, DSMZ1128 and DSMZ1299) and 2 B. cepacia complex strains (NCTC10743 and NCTC10744); test: microbe, parasite or virus in culture; type: cell-based, Pseudomonas aeruginosa; Burkholderia cepacia complex; conditions: Pseudomonas aeruginosa, read-out: MIC100
From the text: The complex pathophysiology of CF is characterized by airway obstruction caused by abnormal mucus secretion and infection, with 60-80% of patients being chronically infected with the biofilm-forming bacteria Pseudomonas aeruginosa (George et al., 2009). With a prevalence of up to 10% in adult CF patients, B. cepacia complex is a rare but major concern due to its high virulence, morbidity and transmissibility (O'Malley, 2009; Brüssow, 2012). We tested the antimicrobial activity of cysteamine-tobramycin combinations in artificial sputum medium (Yang, et al., 2011) against 4 P. aeruginosa (PAO1, ATCC27853, DSMZ1128 and DSMZ1299) and 2 B. cepacia complex strains (NCTC10743 and NCTC10744).

[7] = system: Pseudomonas aeruginosa Pa57388D; test: FIC index of combinations with conventional antibiotics, strain Pa57388D; type: cell-based; conditions: strain Pa57388D (Col^R, Gent^R), listed as Cysteamine (NM001)
Protocol: as §1, §2, §3, §4, §5

[8] = system: Pseudomonas aeruginosa Pa14; test: MIC determination, strain Pa14; type: cell-based
Protocol: as §1
as §2, with “The MIC was obtained as the lowest concentration of antimicrobial showing total inhibition of bacterial growth.” left out
A number of compounds related in chemical structure to cysteamine were examined for antimicrobial activity; cystamine (dihydrochloride salt), taurine and 2,3-dimercaptosuccinic acid. Other compounds chemically related to cysteamine are known, but are toxic, and are therefore of no utility in a drug of this nature.

[9] = system: Pseudomonas aeruginosa cells; test: Tobramycin alone and with cysteamine in non-mucous and mucous environment (FIG. 3); type: cell-based; conditions: mucous environment (NaCl and/or mucin)
From the text: FIG. 3: provides a comparison of the activity of Tobramycin alone and when in combination with cysteamine (NM001) against Pseudomonas aeruginosa cells cultured in a non-mucous environment and when cultured in a mucous environment replicating that found within the CF lung (in the presence of NaCl and/or mucin).

[10] = in combination with Ciprofloxacin

Structure (SMILES): NCCS [Cysteamine, cysteamine]
- FICI (Additive) Cip ([1]; in combination with Ciprofloxacin, listed as Cysteamine (NM001)): 0.75 and 0.63
- FICI (Synergy) Col ([1]; in combination with Colistin): 0.38
- FICI (Additive) Col ([1]; in combination with Colistin, listed as Cysteamine (NM001)): 0.53 and 0.5 and 0.56
- FICI (Additive) Gent ([1]; in combination with Gentamicin, listed as Cysteamine (NM001)): 0.63 and 0.5 and 0.75
- FICI (Additive) Tob ([1]; in combination with Tobramycin, listed as Cysteamine (NM001)): 0.56 and 0.75 and 0.5
- post-antimicrobial effect (delayed bacterial growth, reduced metabolic activity of the biofilm) [2]: significant PAE
- total bacterial growth inhibition (MIC100) versus normal condition ([3]; in the presence of 150 mM NaCl, 1.7 mM CaCl2 or 1 mg/ml DNA): retained
- concentration for total growth inhibition relative to the normal MIC100 ([3]; in the presence of 1% (w/v) porcine gastric mucin): two-fold
- FICI (Additive) Cip [4, 10]: 0.63
- FICI (Additive) Col ([4]; in combination with Colistin): 0.52 and 0.51 and 0.63 and 0.56
- FICI (Synergy) Col ([4]; in combination with Colistin): 0.38 and 0.31
- FICI (Additive) Gent ([4]; in combination with Gentamicin): 0.5 and 0.56 and 0.75
- FICI (Synergy) Gent ([4]; in combination with Gentamicin): 0.38
- FICI (Additive) Tob ([4]; in combination with Tobramycin): 0.63 and 0.75 and 0.5 and 0.56
- FICI (Synergy) Tob ([4]; in combination with Tobramycin): 0.31 and 0.38
- reduction of the MIC of Tobramycin by NM001 [5]: at least 4 fold
- MIC [6]: 250 to 500 µg/mL
- FICI (Additive) Cip [7, 10]: 0.53 and 0.56 and 0.52 and 0.75
- FICI (Additive) Col ([7]; in combination with Colistin): 0.62 and 0.53 and 0.56 and 0.5
- FICI (Synergy) Col ([7]; in combination with Colistin): 0.31 and 0.38
- FICI (Additive) Gent ([7]; in combination with Gentamicin): 0.5 and 0.63 and 0.51
- FICI (Synergy) Gent ([7]; in combination with Gentamicin): 0.38
- FICI (Additive) Tob ([7]; in combination with Tobramycin): 0.56 and 0.51 and 0.52
- FICI (Synergy) Tob ([7]; in combination with Tobramycin): 0.38 and 0.31 and 0.25
- MIC50 [8]: 125 to 250 µg/mL (≈ 1.62 to 3.24 mM)
- MIC90 [8]: 500 µg/mL (≈ 6.48 mM)
- MIC ([8]; read-out: MIC100): 1330 µg/mL (≈ 17.3 mM)
- effect on activity of conventional antibiotics [9]: restores antibiotic activity
